# In patent US20110230471A1, “BENZONAPHTYRIDINE COMPOUNDS AS INHIBITORS OF AUTOTAXIN” (MERCK PATENT GESELLSCHAFT MIT BESCHRANKTER HAFTUNG, priority 2008, published 2011):
# Target: T1, recombinant autotaxin (Homo sapiens, UniProt Q13822)
# T1 construct: made in house; host or cells: Hi5 insect cells (baculovirus)
# Assay: Autotaxin test (enzyme test), Amplex Red
# Type: biochemical
# Details: Autotaxin inhibition (enzyme test), TABLE 1 (A compounds); substrate LPC 75 μM
# Method: The autotaxin activity is measured indirectly using Amplex Red reagent. Amplex Red is measured here as fluorogenic indicator for the H2O2 formed. In detail, autotaxin converts the substrate lysophosphatidylcholine (LPC) into phosphocholine and lysophosphatidylic acid (LPA). After this reaction, the phosphocholine is reacted with alkaline phosphatase to give inorganic phosphate and choline. In the next step, choline is oxidised by choline oxidase to give betaine, with formation of H2O2. H2O2 reacts with Amplex Red reagent in the presence of peroxidase (horseradish peroxidase) in a 1:1 stoichiometry and forms the highly fluorescent resorufin. The fluorescence is measured in a reaction-dependent kinetic mode in order that fluorescent signals from possible other fluorescent substances which are not involved in the reaction can be corrected out.
# 1.5 μl of a standard solution or of the test substances (substances with the name A(n))in individual concentrations dissolved in 20 mM Hepes pH 7.2 with a maximum of 7.7% of DMSO are pre-incubated together with 10 μl (16 ng) of highly purified recombinant autotaxin in a black microtitre plate provided with 384 wells at 22° C. for 30 min. The reaction is then initiated by addition of 5 μl of L-α-lysophosphatidylcholine (LPC), where the final concentration of LPC is 75 μM. The mixture is incubated at 37° C. for 90 min. After the incubation, Amplex Red reagent, peroxidase (horseradish peroxidase) and choline oxidase is added, and the fluorescence is immediately measured at 612 nm with excitation of 485 nm in a “Tecan Ultra multimode” reader. The activity of autotaxin is calculated indirectly via detection of the H2O2 formed.
# • Microtitre plate: PS microplate, 384 wells, small volume, black Corning, Cat#3677 • Protein: recombinant autotaxin (Baculovirale Hi5 Expression) • Substrate: L-α-lysophosphatidylcholine (chicken egg)); Avanti Polar Lipids # 830071 P • Standard: C14 LPA, Avanti Polar Lipids, Cat# 857120P • Detection reagent: Amplex Red reagent; Invitrogen # A12222; dissolved in 1.923 ml of DMSO peroxidase type VI-A (horseradish) from Sigma # P6782; dissolved in 7.45 ml of test buffer, choline oxidase; Sigma # C5896; dissolved in 2.47 ml of test buffer • Detection reagent mix: 1:100 dilution of Amplex Red reagent in test buffer • Test buffer: 200 mM Tris HCl, Merck, Cat # 1.08219, pH 7.9, 0.1% of BSA, lipid-free, Roche Cat#775835
row,IC50 [nM],SMILES
1,< 100,"COc1ccc(Cl)cc1NC(=O)CN1CCc2nc3ccccc3c(C(=O)N3CCN(C)CC3)c2C1 [Compound A1, N-(5-chloro-2-methoxyphenyl)-2-[10-(4-methylpiperazine-1-carbonyl)-3,4-dihydro-1H-benzo[b][1,6]naphthyridin-2-yl]acetamide]"
2,< 100,"COc1ccc(Cl)cc1NC(=O)CN1CCc2nc3ccccc3c(C(=O)N3CCOCC3)c2C1 [Compound A7, N-(5-chloro-2-methoxyphenyl)-2-[10-(morpholine-4-carbonyl)-3,4-dihydro-1H-benzo[b][1,6]naphthyridin-2-yl]acetamide]"
3,> 1000,"COc1ccccc1NC(=O)CN1CCc2nc3ccccc3c(C(=O)N3CCOCC3)c2C1 [Compound A10, N-(2-Methoxyphenyl)-2-[10-(morpholine-4-carbonyl)-3,4-dihydro-1H-benzo-[b][1,6]naphthyridin-2-yl]acetamide]"
4,100 to 1000,"COc1ccc(C)cc1NC(=O)CN1CCc2nc3ccccc3c(C(=O)N3CCOCC3)c2C1 [Compound A12, N-(2-Methoxy-5-methylphenyl)-2-[10-(morpholine-4-carbonyl)-3,4-dihydro-1H-benzo[b][1,6]naphthyridin-2-yl]acetamide]"
5,< 100,"COc1ccc(Br)cc1NC(=O)CN1CCc2nc3ccccc3c(C(=O)N3CCOCC3)c2C1 [Compound A13, N-(5-Bromo-2-methoxyphenyl)-2-[10-(morpholine-4-carbonyl)-3,4-dihydro-1H-benzo[b][1,6]naphthyridin-2-yl]acetamide]"
6,100 to 1000,"COc1ccc(-c2ccccc2)cc1NC(=O)CN1CCc2nc3ccccc3c(C(=O)N3CCOCC3)c2C1 [Compound A14, N-(4-Methoxybiphenyl-3-yl)-2-[10-(morpholine-4-carbonyl)-3,4-dihydro-1H-benzo[b][1,6]naphthyridin-2-yl]acetamide]"
7,100 to 1000,"CCc1ccc2c(C(=O)N3CCOCC3)c3c(nc2c1)CCN(CC(=O)Nc1cc(Cl)ccc1OC)C3 [Compound A17, N-(5-Chloro-2-methoxyphenyl)-2-[7-ethyl-10-(morpholine-4-carbonyl)-3,4-dihydro-1H-benzo[b][1,6]naphthyridin-2-yl]acetamide]"
8,< 100,"CCN1CCN(C(=O)c2c3c(nc4ccccc24)CCN(CC(=O)Nc2cc(Cl)ccc2OC)C3)CC1 [Compound A23, N-(5-Chloro-2-methoxyphenyl)-2-[10-(4-ethylpiperazine-1-carbonyl)-3,4-dihydro-1H-benzo[b][1,6]naphthyridin-2-yl]acetamide]"
9,100 to 1000,"COc1ccc(Cl)cc1NC(=O)CN1CCc2nc3ccccc3c(C(=O)N3CCN(C(=O)OCc4ccccc4)CC3)c2C1 [Compound A25, 4-{2-[(5-Chloro-2-methoxyphenylcarbamoyl)methyl]-1,2,3,4-tetrahydrobenzo[b][1,6]naphthyridine-10-carbonyl}piperazine-1-carboxylic acid benzyl ester]"
10,100 to 1000,"COc1ccc(Cl)cc1NC(=O)CN1CCc2nc3ccccc3c(C(=O)N3CCCN(Cc4ccccc4)CC3)c2C1 [Compound A26, 2-[10-(4-Benzyl-1,4-diazepan-1-carbonyl)-3,4-dihydro-1H-benzo[b][1,6]-naphthyridin-2-yl]-N-(5-chloro-2-methoxyphenyl)acetamide]"
11,100 to 1000,"COc1ccc(Cl)cc1NC(=O)CN1CCc2nc3ccccc3c(C(=O)N3CCNCC3)c2C1 [Compound A27, N-(5-chloro-2-methoxyphenyl)-2-[10-(piperazine-1-carbonyl)-3,4-dihydro-1H-benzo[b][1,6]naphthyridin-2-yl]acetamide]"
12,100 to 1000,"COc1ccc(Cl)cc1NC(=O)CN1CCc2nc3ccccc3c(C(=O)N3CCN(C4CCCC4)CC3)c2C1 [Compound A28, N-(5-Chloro-2-methoxyphenyl)-2-[10-(4-cyclopentylpiperazine-1-carbonyl)-3,4-dihydro-1H-benzo[b][1,6]naphthyridin-2-yl]acetamide]"
13,< 100,"CCCN1CCN(C(=O)c2c3c(nc4ccccc24)CCN(CC(=O)Nc2cc(Cl)ccc2OC)C3)CC1 [Compound A29, N-(5-Chloro-2-methoxyphenyl)-2-[10-(4-propylpiperazine-1-carbonyl)-3,4-dihydro-1H-benzo[b][1,6]naphthyridin-2-yl]acetamide]"
14,100 to 1000,"COc1ccc(Cl)cc1NC(=O)CN1CCc2nc3ccccc3c(C(=O)N3CCN(Cc4ccccc4)CC3)c2C1 [Compound A30, 2-[10-(4-Benzylpiperazine-1-carbonyl)-3,4-dihydro-1H-benzo[b][1,6]naphthyridin-2-yl]-N-(5-chloro-2-methoxyphenyl)acetamide]"
15,> 1000,"CCOc1ccc(Cl)cc1NC(=O)CN1CCc2nc3ccccc3c(C(=O)N3CCOCC3)c2C1 [Compound A41, N-(5-Chloro-2-ethoxyphenyl)-2-[10-(morpholine-4-carbonyl)-3,4-dihydro-1H-benzo[b][1,6]naphthyridin-2-yl]acetamide]"

# Continued, compound first:
row,SMILES,IC50 [nM]
1,"O=C(CN1CCc2nc3ccccc3c(C(=O)N3CCOCC3)c2C1)Nc1cccc(Cl)c1 [Compound A9, N-(3-Chlorophenyl)-2-[10-(morpholine-4-carbonyl)-3,4-dihydro-1H-benzo-[b][1,6]naphthyridin-2-yl]acetamide]",> 1000
2,"Cc1ccc(Cl)cc1NC(=O)CN1CCc2nc3ccccc3c(C(=O)N3CCOCC3)c2C1 [Compound A11, N-(5-Chloro-2-methylphenyl)-2-[10-(morpholine-4-carbonyl)-3,4-dihydro-1H-benzo[b][1,6]naphthyridin-2-yl]acetamide]",> 1000
3,"COc1ccc(Cl)cc1NC(=O)CN1CCc2nc3cc(Cl)ccc3c(C(=O)N3CCOCC3)c2C1 [Compound A15, N-(5-Chloro-2-methoxyphenyl)-2-[7-chloro-10-(morpholine-4-carbonyl)-3,4-dihydro-1H-benzo[b][1,6]naphthyridin-2-yl]acetamide]",100 to 1000
4,"COc1ccc(Cl)cc1NC(=O)CN1CCc2nc3c(Cl)cccc3c(C(=O)N3CCOCC3)c2C1 [Compound A16, N-(5-Chloro-2-methoxyphenyl)-2-[6-chloro-10-(morpholine-4-carbonyl)-3,4-dihydro-1H-benzo[b][1,6]naphthyridin-2-yl]acetamide]",100 to 1000
5,"CN1CCN(C(=O)c2c3c(nc4ccccc24)CCN(C(=O)CCc2ccc(Cl)cc2Cl)C3)CC1 [Compound A31, 3-(2,4-dichlorophenyl)-1-[10-(4-methylpiperazine-1-carbonyl)-3,4-dihydro-1H-benzo[b][1,6]naphthyridin-2-yl]propan-1-one]",> 1000
6,"CN1CCN(C(=O)c2c3c(nc4ccccc24)CCN(C(=O)CCc2ccc(Cl)cc2F)C3)CC1 [Compound A33, 3-(4-Chloro-2-fluorophenyl)-1-[10-(4-methylpiperazine-1-carbonyl)-3,4-dihydro-1H-benzo[b][1,6]naphthyridin-2-yl]propan-1-one]",> 1000
7,"COc1ccc(Cl)cc1NC(=O)CN1CCc2nc3c(Br)cccc3c(C(=O)N3CCOCC3)c2C1 [Compound A40, 2-[6-Bromo-10-(morpholine-4-carbonyl)-3,4-dihydro-1H-benzo[b][1,6]naphthyridin-2-yl]-N-(5-chloro-2-methoxyphenyl)acetamide]",100 to 1000
8,"COc1ccc(Cl)cc1NC(=O)CN1CCc2nc3cc(Br)ccc3c(C(=O)N3CCOCC3)c2C1 [Compound A42, 2-[7-Bromo-10-(morpholine-4-carbonyl)-3,4-dihydro-1H-benzo[b][1,6]-naphthyridin-2-yl]-N-(5-chloro-2-methoxyphenyl)acetamide]",100 to 1000
9,"O=C(CN1CCc2nc3ccccc3c(C(=O)N3CCOCC3)c2C1)Nc1cc(Br)cc2ccoc12 [Compound A43, N-(5-Bromobenzofuran-7-yl)-2-[10-(morpholine-4-carbonyl)-3,4-dihydro-1H-benzo[b][1,6]naphthyridin-2-yl]acetamide]",100 to 1000
10,"O=C(CN1CCc2nc3ccccc3c(C(=O)N3CCOCC3)c2C1)Nc1cccc2ccoc12 [Compound A45, N-Benzofuran-7-yl-2-[10-(morpholine-4-carbonyl)-3,4-dihydro-1H-benzo-[b][1,6]naphthyridin-2-yl]acetamide]",> 1000
11,"O=C(CN1CCc2nc3ccccc3c(C(=O)N3CCOCC3)c2C1)Nc1cc(Cl)cc2ccoc12 [Compound A48, N-(5-Chlorobenzofuran-7-yl)-2-[10-(morpholine-4-carbonyl)-3,4-dihydro-1H-benzo[b][1,6]naphthyridin-2-yl]acetamide]",100 to 1000
